Data published in patent US8802597B2, “Herbicidal pyrimidines” (E I du Pont de Nemours and Company, priority 2003, dated 2014).

Tests used:
Format in all cases: in vivo
[1] = test system: barnyardgrass (Echinochloa crus-galli); experiment: Test B flooded paddy test; settings: Flood, 1000 g ai/ha; scale 0 (no effect) to 100 (complete control)
Method in brief: (§1)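 Plants were grown to the 2-leaf stage before treatment, then kept in a greenhouse for 13 to 15 days. Injury was rated visually against untreated controls on a 0 to 100 scale, where 0 is no effect and 100 is complete control.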

rice (Oryza sativa) = experiment: Test B flooded paddy test; settings: Flood, 1000 g ai/ha; scale 0 to 100
Method in brief: as §1

[2] = test system: duck salad (Heteranthera limosa); experiment: Test B flooded paddy test; settings: Flood, 1000 g ai/ha; scale 0 to 100
Method in brief: as §1

[3] = test system: umbrella sedge (Cyperus difformis); experiment: Test B flooded paddy test; settings: Flood, 1000 g ai/ha; scale 0 to 100
Method in brief: as §1

[4] = test system: blackgrass (Alopecurus myosuroides); experiment: Test B postemergence
Method in brief: (§2)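 Visual injury scored 0 (no effect) to 100 (complete control) versus untreated controls after 13 to 15 days in greenhouse. Treatments were pre- or postemergence sprays of surfactant-containing solvent formulations; postemergence plants at 1- to 4-leaf stage, 2 to 18 cm.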

wild oat (Avena fatua) = experiment: Test B postemergence
Method in brief: as §2

[5] = test system: barnyardgrass (Echinochloa crus-galli); experiment: Test B pre/postemergence
Method in brief: as §2

[6] = test system: cocklebur (Xanthium strumarium); experiment: Test B pre/postemergence
Method in brief: as §2

corn (Zea mays) = experiment: Test B pre/postemergence
Method in brief: as §2

[7] = test system: morningglory (Ipomoea coccinea); experiment: Test B pre/postemergence
Method in brief: as §2

[8] = test system: wheat (Triticum aestivum); experiment: Test B pre/postemergence
Method in brief: as §2

[9] = test system: velvetleaf (Abutilon theophrasti); experiment: Test B pre/postemergence
Method in brief: as §2

[10] = test system: pigweed (Amaranthus retroflexus); experiment: Test B pre/postemergence
Method in brief: as §2

[11] = test system: crabgrass (Digitaria sanguinalis); experiment: Test B pre/postemergence
Method in brief: as §2

[12] = test system: giant foxtail (Setaria faberii); experiment: Test B pre/postemergence
Method in brief: as §2

[13] = test system: Surinam grass (Brachiaria decumbens); experiment: Test B pre/postemergence
Method in brief: as §2

[14] = test system: lambsquarters (Chenopodium album); experiment: Test B pre/postemergence
Method in brief: as §2

[15] = 125 g ai/ha, scale 0 to 100 (0 no effect, 100 complete control)
[16] = Postemergence, 125 g ai/ha, scale 0 to 100 (0 no effect, 100 complete control)
[17] = Postemergence, 500 g ai/ha, scale 0 to 100
[18] = Preemergence, 125 g ai/ha, scale 0 to 100 (0 no effect, 100 complete control)
[19] = Preemergence, 500 g ai/ha, scale 0 to 100 (0 no effect, 100 complete control)

Structure (SMILES): CCOC(=O)C(OC(C)=O)c1nc(C2CC2)nc(N)c1Br (stereo not shown) [Compound 47]
- Plant response rating, Barnyardgrass [1]: 0
- Plant response rating, Rice (rice (Oryza sativa)): 0
- Plant response rating, Ducksalad [2]: 80
- Plant response rating, Sedge, Umbrella [3]: 70
- Blackgrass plant response rating [4, 15]: 0
- Plant response rating, Blackgrass ([4]; 500 g ai/ha, scale 0 to 100): 0
- Oat, Wild plant response rating (wild oat (Avena fatua); [15]): 0
- Plant response rating, Oat, Wild (wild oat (Avena fatua); 500 g ai/ha, scale 0 to 100): 0
- Barnyardgrass plant response rating [5, 16]: 20
- Plant response rating, Barnyardgrass [5, 17]: 60
- Plant response rating, Barnyardgrass [5, 18]: 0
- Barnyardgrass plant response rating [5, 19]: 40
- Cocklebur plant response rating [6, 16]: 90
- Plant response rating, Cocklebur [6, 17]: 100
- Plant response rating, Cocklebur [6, 18]: 80
- Cocklebur plant response rating [6, 19]: 90
- Corn plant response rating (corn (Zea mays); [16]): 0
- Plant response rating, Corn (corn (Zea mays); [17]): 0
- Plant response rating, Corn (corn (Zea mays); [18]): 0
- Corn plant response rating (corn (Zea mays); [19]): 30
- Morningglory plant response rating [7, 16]: 80
- Plant response rating, Morningglory [7, 17]: 90
- Plant response rating, Morningglory [7, 18]: 80
- Morningglory plant response rating [7, 19]: 100
- Wheat plant response rating [8, 16]: 0
- Plant response rating, Wheat [8, 17]: 0
- Plant response rating, Wheat [8, 18]: 20
- Plant response rating, Wheat [8, 19]: 50
- Velvetleaf plant response rating [9, 16]: 20
- Plant response rating, Velvetleaf [9, 17]: 40
- Plant response rating, Velvetleaf [9, 18]: 60
- Velvetleaf plant response rating [9, 19]: 90
- Pigweed plant response rating [10, 16]: 70
- Plant response rating, Pigweed [10, 17]: 80
- Plant response rating, Pigweed [10, 18]: 80
- Pigweed plant response rating [10, 19]: 90
- Crabgrass plant response rating [11, 16]: 10
- Plant response rating, Crabgrass [11, 17]: 60
- Plant response rating, Crabgrass [11, 18]: 20
- Crabgrass plant response rating [11, 19]: 90
- Foxtail, Giant plant response rating [12, 16]: 10
- Plant response rating, Foxtail, Giant [12, 17]: 50
- Plant response rating, Foxtail, Giant [12, 18]: 20
- Foxtail, Giant plant response rating [12, 19]: 40
- Surinam Grass plant response rating [13, 16]: 0
- Plant response rating, Surinam Grass [13, 17]: 20
- Plant response rating, Surinam Grass [13, 18]: 0
- Surinam Grass plant response rating [13, 19]: 20
- Lambsquarters plant response rating [14, 16]: 80
- Plant response rating, Lambsquarters [14, 17]: 90
- Plant response rating, Lambsquarters [14, 18]: 90
- Lambsquarters plant response rating [14, 19]: 100
